Experimental data as given in patent US20150284381A1, “AMINO-PYRIDINE-CONTAINING SPLEEN TYROSINE KINASE (SYK) INHIBITORS” (MERCK SHARP & DOHME CORP., priority 2012, published 2015).

Test system: not given
Experiment: not given
Conditions: phase II clinical trial, allergic rhinitis; cited from earlier work

SMILES | efficacy versus placebo
Oc1cccc(Nc2ncc(F)c(Nc3cccc(O)c3)n2)c1 [Example R112] | lack of efficacy versus placebo

Test system: PGD2
Experiment: not given
Conditions: dosed intranasally, phase I/II study, allergic rhinitis; cited from earlier work

SMILES | PGD2 | clinical safety
Oc1cccc(Nc2ncc(F)c(Nc3cccc(O)c3)n2)c1 [Example R112] | statistically significant decrease | safe across a range of indicators

Biological target: T1, recombinant human GST-Syk (Homo sapiens, UniProt P43405)
T1 construct: purchased Carna Biosciences 08-176
Experiment: Homogeneous Time-Resolved Fluorescence (HTRF) assay for the recombinant human Syk enzyme
Format: biochemical
Conditions: recombinant human GST-Syk 5 pM, ATP 25 μM, 45 min at rt, read-out: rhSyk
Description: Homogeneous Time-Resolved Fluorescence (HTRF) Assay for the Recombinant Human Syk Enzyme
A recombinant GST-hSyk fusion protein was used to measure potency of compounds to inhibit human Syk activity. The recombinant human GST-Syk (Carna Biosciences #08-176) (5 pM nominal concentration) was incubated with various concentrations of the inhibitor diluted in DMSO (0.1% final concentration) for 10 minutes at rt in 15 mM Tris-HCl (pH 7.5), 0.01% tween 20, 2 mM DTT in 384 well plate format. To initiate the reaction the biotinylated substrate peptide (250 nM final concentration) that contains the phosphorylation site for Syk was added with magnesium (5 mM final concentration) and ATP (25 μM final concentration). Final volume of the reaction was 10 μL. Phosphorylation of the peptide was allowed to proceed for 45′ at rt. To quench the reaction and detect the phosphorylated product, 2 nM of a Europium-anti-phosphotyrosine antibody (Perkin Elmer #AD0161) and 70 nM SA-APC (Perkin-Elmer #CR130-100) were added together in 15 mM Tris pH 7.5, 40 mM EDTA, 0.01% tween 20. Final volume of the quenching solution was 10 μL. The resulting HTRF signal was measured after 30 minutes on a EnVision (Perkin-Elmer) reader using a time-resolved fluorescence protocol. IC50 was determined following 10-dose titration (10 μM to 0.508 nM) and four parameter logistic curve fitting using an assay data analyzer.

IC50 [nM] | SMILES
0.51 | Cc1cc(Nc2cc(C(F)(F)F)ccn2)nc(-c2cnc(C3(O)CCCc4cc(C(=O)O)c(Br)cc43)s2)c1 (single isomer, unassigned) [Example 1B, 3-Bromo-5-hydroxy-5-[5-(4-methyl-6-{[4-(trifluoromethyl)pyridin-2-yl]amino}pyridin-2-yl)-1,3-thiazol-2-yl]-5,6,7,8-tetrahydronaphthalene-2-carboxylic acid]
0.39 | Cc1cc(Nc2cc(C(F)(F)F)ccn2)nc(-c2cnc(C3(O)CCc4cc(C(=O)O)c(F)cc43)s2)c1 (single isomer, unassigned) [Example 1C, (R or S)-6-fluoro-1-hydroxy-1-[5-(4-methyl-6-{[4-(trifluoromethyl)pyridin-2-yl]amino}pyridin-2-yl)-1,3-thiazol-2-yl]-2,3-dihydro-1H-indene-5-carboxylic acid]
0.1 | Cc1cc(Nc2cc(C(C)F)ccn2)nc(-c2cnc(C3(O)CCCc4cc(C(=O)O)ccc43)s2)c1 (single isomer, unassigned) [Example 8B, 5-(5-(6-((4-(1-Fluoroethyl)pyridin-2-yl)amino)-4-methylpyridin-2-yl)thiazol-2-yl)-5-hydroxy-5,6,7,8-tetrahydronaphthalene-2-carboxylic acid]
2 | Cc1cc(Nc2cc(C(C)F)ccn2)nc(-c2cnc(C3(O)CCCc4cc(C(=O)O)ccc43)s2)c1 (single isomer, unassigned) [Example 8C, 5-(5-(6-((4-(1-Fluoroethyl)pyridin-2-yl)amino)-4-methylpyridin-2-yl)thiazol-2-yl)-5-hydroxy-5,6,7,8-tetrahydronaphthalene-2-carboxylic acid]
4.61 | Cc1cc(Nc2cc(C(F)(F)F)ccn2)nc(-c2cnc([C@@]3(O)CCCc4c3ccc(C(=O)O)c4O)s2)c1 (single isomer, unassigned) [Example 7A, 1,5-Dihydroxy-5-[5-(4-methyl-6-{[4-(trifluoromethyl)pyridin-2-yl]amino}pyridin-2-yl)-1,3-thiazol-2-yl]-5,6,7,8-tetrahydronaphthalene-2-carboxylic acid]
1.51 | Cc1cc(Nc2cc(C(F)(F)F)ccn2)nc(-c2cnc(C3(O)CCCc4cc(C(=O)O)c(Br)cc43)s2)c1 (single isomer, unassigned) [Example 1A, 3-Bromo-5-hydroxy-5-[5-(4-methyl-6-{[4-(trifluoromethyl)pyridin-2-yl]amino}pyridin-2-yl)-1,3-thiazol-2-yl]-5,6,7,8-tetrahydronaphthalene-2-carboxylic acid]
2.19 | Cc1cc(Nc2cc(C(F)(F)F)ccn2)nc(-c2cnc(C3(O)CCCc4c3ccc(C(=O)O)c4F)s2)c1 (single isomer, unassigned) [Example 1i, (R or S)-1-fluoro-5-hydroxy-5-[5-(4-methyl-6-{[4-(trifluoromethyl)pyridin-2-yl]amino}pyridin-2-yl)-1,3-thiazol-2-yl]-5,6,7,8-tetrahydronaphthalene-2-carboxylic acid]
2 | Cc1cc(Nc2cc(C(C)F)ccn2)nc(-c2cnc(C3(O)CCCc4cc(C(=O)O)ccc43)s2)c1 (single isomer, unassigned) [Example 8A, 5-(5-(6-((4-(1-Fluoroethyl)pyridin-2-yl)amino)-4-methylpyridin-2-yl)thiazol-2-yl)-5-hydroxy-5,6,7,8-tetrahydronaphthalene-2-carboxylic acid]
0.24 | Cc1cc(Nc2cc(C(F)(F)F)ccn2)nc(-c2cnc([C@@]3(O)CCCc4c3ccc(C(=O)O)c4O)s2)c1 (single isomer, unassigned) [Example 7B, 1,5-Dihydroxy-5-[5-(4-methyl-6-{[4-(trifluoromethyl)pyridin-2-yl]amino}pyridin-2-yl)-1,3-thiazol-2-yl]-5,6,7,8-tetrahydronaphthalene-2-carboxylic acid]

Continued, compound first:

SMILES | IC50 [nM]
Cc1cc(Nc2cc(C3CC3)ccn2)nc(-c2cnc(C3(O)CCCc4cc(C(=O)O)c(F)cc43)s2)c1 (single isomer, unassigned) [Example 1H, (R or S)-5-(5-{6-[(4-cyclopropylpyridin-2-yl)amino]-4-methylpyridin-2-yl}-1,3-thiazol-2-yl)-3-fluoro-5-hydroxy-5,6,7,8-tetrahydronaphthalene-2-carboxylic acid] | 0.002
Cc1cc(Nc2cc(C(C)F)ccn2)nc(-c2cnc(C3(O)CCCc4cc(C(=O)O)ccc43)s2)c1 (single isomer, unassigned) [Example 8D, 5-(5-(6-((4-(1-Fluoroethyl)pyridin-2-yl)amino)-4-methylpyridin-2-yl)thiazol-2-yl)-5-hydroxy-5,6,7,8-tetrahydronaphthalene-2-carboxylic acid] | 0.1
COC(=O)c1ccc2c(c1)CCCC2(O)c1ncc(-c2cc(C)cc(Nc3cc(-c4cn[nH]c4)ccn3)n2)s1 (stereo not drawn) [Example 4A, Methyl 5-(5-(6-((4-(1H-pyrazol-4-yl)pyridin-2-yl)amino)-4-methylpyridin-2-yl)thiazol-2-yl)-5-hydroxy-5,6,7,8-tetrahydronaphthalene-2-carboxylate] | 2.38
Cc1cc(Nc2cc(C3CCCC(C)C3)ccn2)nc(-c2cnc([C@@]3(O)CCCc4cc(C(=O)O)ccc43)s2)c1 (stereo partly drawn) [Example 3A, (5R)-5-hydroxy-5-[5-(4-methyl-6-{[4-(3-methylcyclohexyl)pyridin-2-yl]amino}pyridin-2-yl)-1,3-thiazol-2-yl]-5,6,7,8-tetrahydronaphthalene-2-carboxylic acid] | 1.8
Cc1cc(Nc2cc(-c3cn[nH]c3)ccn2)nc(-c2cnc([C@@]3(O)CCc4cc(C(=O)O)ccc43)s2)c1 [Example 5A, (1R)-1-hydroxy-1-[5-(4-methyl-6-{[4-(1H-pyrazol-4-yl)pyridin-2-yl]amino}pyridin-2-yl)-1,3-thiazol-2-yl]-2,3-dihydro-1H-indene-5-carboxylic acid] | 0.04
COc1ccnc(Nc2cc(C)cc(-c3cnc([C@@]4(O)CCc5cc(C(=O)O)ccc54)s3)n2)c1 [Example 2G, (1R)-1-hydroxy-1-(5-{6-[(4-methoxypyridin-2-yl)amino]-4-methylpyridin-2-yl}-1,3-thiazol-2-yl)-2,3-dihydro-1H-indene-5-carboxylic acid] | 0.16
Cc1cc(Nc2cc(-c3cn[nH]c3)ccn2)nc(-c2cnc(C3(O)CCCc4cc(C(=O)N(C)C)ccc43)s2)c1 (single isomer, unassigned) [Example 4C-2, 5-Hydroxy-N,N-dimethyl-5-[5-(4-methyl-6-{[4-(1H-pyrazol-4-yl)pyridin-2-yl]amino}pyridin-2-yl)-1,3-thiazol-2-yl]-5,6,7,8-tetrahydronaphthalene-2-carboxamide] | 757
CCC(CC)c1ccnc(Nc2cc(C)cc(-c3cnc([C@@]4(O)CCCc5cc(C(=O)O)ccc54)s3)n2)c1 [Example 3C, (5R)-5-[5-(6-{[4-(1-ethylpropyl)pyridin-2-yl]amino}-4-methylpyridin-2-yl)-1,3-thiazol-2-yl]-5-hydroxy-5,6,7,8-tetrahydronaphthalene-2-carboxylic acid] | 0.5
Cc1cc(Nc2cc(-c3c[nH]nn3)ccn2)nc(-c2cnc([C@@]3(O)CCCc4cc(C(=O)N(C)C)ccc43)s2)c1 [Example 6A, (5R)-5-hydroxy-N,N-dimethyl-5-[5-(4-methyl-6-{[4-(1H-1,2,3-triazol-4-yl)pyridin-2-yl]amino}pyridin-2-yl)-1,3-thiazol-2-yl]-5,6,7,8-tetrahydronaphthalene-2-carboxamide] | 0.73
CCc1ccnc(Nc2cc(C)cc(-c3cnc([C@@]4(O)CCc5cc(C(=O)O)ccc54)s3)n2)c1 [Example 2B, (1R)-1-(5-{6-[(4-ethylpyridin-2-yl)amino]-4-methylpyridin-2-yl}-1,3-thiazol-2-yl)-1-hydroxy-2,3-dihydro-1H-indene-5-carboxylic acid] | 0.17
Cc1cc(Nc2cc(-c3cn[nH]c3)ccn2)nc(-c2cnc(C3(O)CCCc4cc(C(=O)O)ccc43)s2)c1 (single isomer, unassigned) [Example 4B-1, 5-Hydroxy-5-[5-(4-methyl-6-{[4-(1H-pyrazol-4-yl)pyridin-2-yl]amino}pyridin-2-yl)-1,3-thiazol-2-yl]-5,6,7,8-tetrahydronaphthalene-2-carboxylic acid] | 1.2
CCCOc1ccnc(Nc2cc(C)cc(-c3cnc([C@@]4(O)CCc5cc(C(=O)O)ccc54)s3)n2)c1 [Example 2H, (1R)-1-hydroxy-1-(5-{4-methyl-6-[(4-propoxypyridin-2-yl)amino]pyridin-2-yl}-1,3-thiazol-2-yl)-2,3-dihydro-1H-indene-5-carboxylic acid] | 0.06
